Assay results published in patent US20070111251A1, “Chemical address tags” (priority 2003, published 2007).

Assays:
[1] = Additive decomposition of peak excitation and emission wavelengths (model coefficients of A and B groups); settings: A group 1 as baseline; for αi^em: influence of A group on peak emission wavelength; for αi^ex: influence of A group on peak excitation wavelength
Text: The chemical structure of the styryl library is illustrated in FIG. 3. […] Initial analysis focused on measurements of peak emission and excitation wavelength obtained for all styryl products showing a single, localized peak (there were 256 such compounds for emission wavelength, and 193 compounds for excitation wavelength). […] The wavelength for the styryl compound formed by joining A group i with B group j is denoted as λij (or more specifically, λij^ex for excitation wavelength and λij^em for emission wavelength). The additive model λij=ai+βj+εij was fit to the data using least squares yielding parameters αi^ex, αi^em, βj^ex, and βj^em that quantify the influence of each A and B group on the spectrum of the styryl product. […] (FIGS. 8A-8B). […] The predictions were made ignoring interactions between the two functional moieties in the styryl compound. The predicted values were obtained without bias, by holding out the data point to be predicted when training the model.
In preferred embodiments, using the cross-validation approach disclosed herein, each compound was held out in sequence, the model was trained using the remaining compounds, then the wavelength value for the held-out compound was predicted based on the resulting fitted model. This process produced correlations between measured and predicted values of ρ^em=0.78 (emission) and ρ^ex=0.69 (excitation).
Based on this analysis, the contribution of the A and B functional groups to the fluorescence of the styryl product is quantified using the fitted coefficients αi^ex, βj^ex, […], and βj^em. Since these coefficients are on a scale without origin, in some embodiments, the invention uses the first A group and B group as a baseline, so […], β1^ex=0, and so on. Table 3 contains the model coefficients of all A and B groups for peak excitation and emission wavelength.
Greater values of αi^ex, αi^em, βj^ex, and βj^em indicate greater peak wavelength. Greater values of αi^mito and […] indicate stronger mitochondrial localization. A groups 40 and 41 were not screened for localization. A groups 2, 29, and 33 only formed fluorescent products with a single B group, so were not included in the spectral analysis.
In some embodiments, the wavelength values for peak excitation and emission were fit to the additive model λij=αi+βj+εij, where εij denotes error that is made as small as possible in the fitting process. Using least squares to minimize the function [formula] over all compounds having experimental data yields coefficient estimates αi for each A group and βj for each B group. One set of coefficient estimates is obtained for the excitation values and another set is obtained for the emission values. To predict the wavelength of a new compound formed from A and B groups i* and j* the sum αi*+βj* is used.
In some embodiments, for both the spectral and localization analysis, cross-validation was used to obtain unbiased estimates of the prediction performance. Each compound was held out in sequence, and the coefficients αi and βj were fit to the remaining compounds. These values were then used to form a prediction for the held out compound, then the predicted and experimental values were compared to obtain a measure of the accuracy of prediction. Since the wavelength values are on a continuous scale, the predicted values were compared to the experimental values using Pearson correlation coefficients. The localization values are dichotomous, so the proportion of matching predictions was used to compare predicted and experimental localization values.

[2] = test system: mitochondria; test: QSLR factorial logistic regression of mitochondrial localization (affinity coefficients, cross-validated prediction); parameters: species or system human; settings: for αi^mito: influence of A group on mitochondrial localization, greater = stronger; for estimated A group affinity coefficient ai: mitochondrial affinity, ±5 for groups always or never mitochondrial
Text: The first column and first row contain the A group and B group labels. The second column and second row contain the estimated A group and B group affinity coefficients (ai and bj respectively). The interior of the table contains the value sij=ai+bj for each compound (where positive values of sij indicate predicted localization to mitochondria, and negative values of sij indicate predicted localization to a non-mitochondrial compartment). The subscript m indicates experimentally determined mitochondrial localization. The subscript o indicates experimentally determined non-mitochondrial localization. The darkened boxes indicate correctly predicted mitochondrial localizations under cross-validation.
Based on this matrix, factorial logistic regression (See, A. Agresti, Categorical Data Analysis, Wiley [2002]) was used to calculate mitochondrial affinity coefficients (ai and bj) for each A and B moiety. (Table 1). Since it is not necessary to observe all possible pairings between A and B building blocks to estimate the affinity coefficients, the QSLR approach can predict localization of unmeasured styryl molecules based on a minimal set of experimentally-determined localizations (see Methods). The methods of the present invention allow assessment of predictivity using the cross-validation technique by holding out one compound and fitting the affinity coefficients using the remaining compounds, predictivity can be assessed by comparing the actual localization of the held-out compound to its predicted localization. Repeating this for every measured compound in the library yields an error rate for the procedure.
Briefly, this technique assigns quantitative scores to each A group (αi^mito) and to each B group (βj^mito), in such a way that αi^mito+βj^mito is positive for compounds with mitochondrial localization, and is negative for compounds lacking mitochondrial localization. […] In additional embodiments, same analysis can be applied to organelles other than mitochondria, provided there are a sufficient number of localizations to specific non-mitochondrial organelles in the combinatorial library of interest for reliable statistical calculations.
In certain embodiments, the predictive performance of the above method was assessed using a cross-validation approach by calculating the proportion of all compounds that are correctly predicted. For cross-validation, each styryl product was set aside in sequence, and the factorial logistic model was fit to the remaining data. Then the resulting A and B scores for the held-out compound were summed. If the sum was positive, the held-out compound was predicted to be mitochondrial, while if the sum was negative, the held-out compound was predicted to be non-mitochondrial. […] The baseline performance of the method scored 104 correct out of 145, or 72%. This number is highly statistically significant compared to random guessing (p-value ˜10^−7). Thus, across the entire library, A and B moieties appear to contribute to localization in an independent, additive fashion.
In some embodiments, subcellular localization data were converted to binary (0/1) values by assigning a value Gij=1 if compound i,j localized to mitochondria (even if it localized to other […] as well), and assigning Gij=0 if compound i,j localized exclusively to any non-mitochondrial cellular structure. Compounds with no localization were omitted from this part of the analysis. The αi and βj coefficients for A or B groups that are always observed to localize to mitochondria, or that never localize to mitochondria, were set to +/−5, respectively. The binary localization data were analyzed using factorial logistic regression. […]

[3] = test system: HeLa cells; test: Kinetic imaging of NBD-triazine probe uptake and sequestration, fitted to nested two-compartment transport model; type: cell-based; settings: median over optimal solutions within 5% of the best fit
Experimental: In living cells, image data was simultaneously acquired with an automated, high-content, kinetic screening instrument equipped with an environmental chamber (see, e.g., V. C. Abraham, D. L. Taylor and J. R. Haskins, Trends in Biotechnology 22, 15 (2004); herein incorporated by reference in its entirety), as cells were incubated with the fluorescent molecules and after removal of extracellular probe. Data was analyzed off line, using an image analysis algorithm to measure the statistical pixel intensity distribution associated with fluorescence probe sequestration in the perinuclear region (see, e.g., FIG. 21; see also, e.g., G. J. Ding et al., Journal of Biological Chemistry 273, 28897 (1998); herein incorporated by reference in its entirety). Data was parametrized with a nested, two-compartment, transport model (see, e.g., W. E. Evans, J. J. Schentag and W. J. Jusko., Applied Pharmacokinetics: Principles of Therapeutic Drug Monitoring (Lippincott Williams & Wilkins, Vancouver, W.A., 1992); herein incorporated by reference in its entirety), using a statistical link function to relate the kinetic coefficient of variation (CV) of pixel intensities in the images with the concentration of probe in vesicles and cytoplasm. Optimal kinetic parameters fitting the experimental data for each probe to the system described by the two-compartment model and statistical link function were determined using the simulated annealing technique (see, e.g., M. Pincus., Oper. Res. 18, 1225 (1979); herein incorporated by reference in its entirety). The present invention is not limited to a particular mechanism. Indeed, an understanding of the mechanism is not necessary to practice the present invention.
To assess how well the model accounts for all the different kinetic traces acquired, a “PVE” (proportion of variance explained) by the model was calculated. The PVE is one minus the ratio of the sum of squared differences between observed and fitted values to the sum of squared differences between observed values and their mean. PVE values close to one indicate good fit to the nested two-compartment model. The average PVE across the probes was 0.92, with >50% of the probes yielded PVE values […]. The present invention is not limited to a particular mechanism. Indeed, an understanding of the mechanism is not necessary to practice the present invention.
Cell culture. HeLa cells were grown in RPMI+10% FCS in a 5% CO2 atmosphere at 37° C. and plated in 96-well plates at a density of 3000 cells/well 24 hours prior to the start of the experiment.
Kinetic Imaging. For influx experiments, cells on 96-well plates were switched to imaging media consisting of RPMI containing 1.0 mM Bromophenol Blue—a soluble, cell-impermeant chromophore used to suppress excitation and emission of extracellular (background) dye fluorescence-, 10 μM probe and 0.1 μM Hoescht 33258 to label the cell nuclei. Plates were then transferred to a KineticScan instrument (Cellomics, Inc., Pittsburgh, Pa.), which contains an environmentally controlled CO2/temperature/humidity chamber, and data was acquired with a 20× objective lens. Images acquisition began approximately 10 min after dye addition, using the Hoescht channel to acquire nuclear images and FITC channel to acquire the NBD image. Plate-scanning mode was used for scanning, in which the instrument builds time-stacks of images by scanning the plate multiple times, returning to the same site of the plate at every scan. For efflux experiments, dye-containing media was removed from the wells of the plate. The wells were washed twice with fresh RPMI medium, imaging media was added, and image acquisition restarted 7 min after the dye-containing media was removed. The last time points of the influx experiment served as the first time point of the efflux experiment. Plates were scanned for approximately two hours in the influx experiment and six hours for the efflux experiment, with each well imaged on average every 7 minutes. […]

αi^em [1]	αi^ex [1]	median Pap(cyto) (apparent partition coefficient between extracellular medium and cytosol) [3]	median Pap(ves) (apparent partition coefficient between cytosol and intracellular vesicles, k(ves)in/k(ves)out) [3]	Structure (SMILES)	αi^mito [2]	estimated A group affinity coefficient ai [2]
		6.63	29.18	Cc1ccc(CNc2nc(NCCCCCCNc3ccc([N+](=O)[O-])c4nonc34)nc(NC3CCCCC3)n2)cc1 [Compound G7]		
		8.29	24.73	Cc1ccc(CNc2nc(NCCCCCCNc3ccc([N+](=O)[O-])c4nonc34)nc(NCCC(C)C)n2)cc1 [Compound G8]		
		267.03	0.20	Cc1ccc(CNc2nc(NCCCCCCNc3ccc([N+](=O)[O-])c4nonc34)nc(NCCc3ccccn3)n2)cc1 [Compound G9]		
		161.46	0.42	CCCCNc1nc(NCCCCCCNc2ccc([N+](=O)[O-])c3nonc23)nc(NCc2cccc(OC)c2OC)n1 [Compound H1]		
		10.30	9.91	COc1cccc(CNc2nc(NCCCCCCNc3ccc([N+](=O)[O-])c4nonc34)nc(NC(C)C)n2)c1OC [Compound H2]		
		7.51	14.91	CCCCCCCCNc1nc(NCCCCCCNc2ccc([N+](=O)[O-])c3nonc23)nc(NCc2cccc(OC)c2OC)n1 [Compound H3]		
		5.12	16.80	COc1cccc(CNc2nc(NCCCCCCNc3ccc([N+](=O)[O-])c4nonc34)nc(NC3CCCCC3C)n2)c1OC (centres unmarked) [Compound H5]		
		8.77	22.55	COc1cccc(CNc2nc(NCCCCCCNc3ccc([N+](=O)[O-])c4nonc34)nc(NCC3CCCCC3)n2)c1OC [Compound H6]		
		12.95	15.10	COc1cccc(CNc2nc(NCCCCCCNc3ccc([N+](=O)[O-])c4nonc34)nc(NCCC(C)C)n2)c1OC [Compound H8]		

The remaining lines, values behind:

Structure (SMILES)	αi^em [1]	αi^ex [1]	median Pap(cyto) (apparent partition coefficient between extracellular medium and cytosol) [3]	median Pap(ves) (apparent partition coefficient between cytosol and intracellular vesicles, k(ves)in/k(ves)out) [3]	αi^mito [2]	estimated A group affinity coefficient ai [2]
O=CCc1ccccc1 [A group 1]	0.0 nm	0.0 nm			−0.2	−0.2
O=Cc1ccccc1 [A group 2]					5.0	5.0
O=Cc1ccccc1Br [A group 3]	46.3 nm	35.7 nm			5.0	5.0
O=Cc1cccc(Br)c1 [A group 4]	23.5 nm	−34.0 nm			−5.0	−5.0
O=Cc1ccc(Br)cc1 [A group 5]	26.7 nm	−32.3 nm			5.0	5.0
O=Cc1ccc(Cl)cc1 [A group 6]	−9.5 nm	4.9 nm			5.0	5.0
O=Cc1ccccn1 [A group 40]	64.8 nm	−18.1 nm				
O=Cc1ccc2ccc3cccc4ccc1c2c34 [A group 41]	46.9 nm	26.1 nm				
